For one experiment, the system named is male ICR mice. Briefly: Measurement of limit running time using a treadmill. The format is in vivo, mouse. The note with it: GABA training group vs training group, diet with 0.5% GABA. The procedure: (§1) Specifically, 10 week-old male ICR mice are classified into the group in which normal food is freely ingested and training is not carried out (control group), the group in which a diet of normal food added with 0.5% of GABA (1.8 g for human) is freely ingested and training is not carried out (GABA group), the group in which normal food is freely ingested and training is carried out (training group) and the group in which a diet of normal food added with 0.5% of GABA (1.8 g for human) is freely ingested and training is carried out (GABA training group) (9 mice in each group). During the test period, the above classified mice freely ingested about 2.7 to about 5.0 g/day of normal food or GABA-comprising food per one individual. Regarding the training group and the GABA training group, running was forced for 60 minutes on a schedule of 3 times a week (interval of 1 day or 2 days). This training was continued until 3 days after termination of the below-mentioned third running test. In the training, a treadmill for small animals (Meiquest Ltd.) was used with the gradient of 0 degree to force running at 25 m/minute running speed. Since a mouse will run at the speed of about 6 to 24 m/minute without a load, the running speed of 25 m/minute is a little faster than normal, i.e., low to moderate intensity.

In experiment [1] the test system is glycogen in a skeletal muscle (gastrocnemius muscle). Briefly: Measurement of the amount of glycogen in a skeletal muscle. The format is in vivo, mouse. The note with it: 0.5% GABA diet. The procedure: as §1
A further experiment relates to phosphorylated AKT/AKT. Nature of the experiment: Phosphorylated AKT/AKT ratio in a skeletal muscle (western blotting). The note with it: gastrocnemius muscle. The format is in vivo, mouse. On the procedure: as §1
On the technique in general: In western blotting, separated proteins are transferred to a membrane and probed.

The subject of the next experiment is insulin in plasma. Nature of the experiment: Measurement of the amount of insulin in plasma. Conditions: 0.5% GABA diet. The experiment is classed as in vivo, mouse. The procedure:
(§2) Specifically, 10 week-old male ICR mice are classified into the group in which normal food is freely ingested and training is not carried out (control group), the group in which a diet of normal food added with 0.5% of GABA (1.8 g for human) is freely ingested and training is not carried out (GABA group), the group in which normal food is freely ingested and training is carried out (training group) and the group in which a diet of normal food added with 0.5% of GABA (1.8 g for human) is freely ingested and training is carried out (GABA training group) (9 mice in each group).
During the test period, the above classified mice freely ingested about 2.7 to about 5.0 g/day of normal food or GABA-comprising food per one individual. Regarding the training group and the GABA training group, running was forced for 60 minutes on a schedule of 3 times a week (interval of 1 day or 2 days). This training was continued until 3 days after termination of the below-mentioned third running test. In the training, a treadmill for small animals (Meiquest Ltd.) was used with the gradient of 0 degree to force running at 25 m/minute running speed. Since a mouse will run at the speed of about 6 to 24 m/minute without a load, the running speed of 25 m/minute is a little faster than normal, i.e., low to moderate intensity.
2 days after termination of the final training, blood of a mouse in a group is collected to measure the amount of insulin in plasma. The measurement of the amount of insulin in plasma was carried out as described below using Lbis (registered trademark) Insulin-Mouse T (FUJIFILM Wako Shibayagi Corporation).
96 well plate for turning an antibody into a solid phase was prepared and washed 4 times with a cleaning liquid. 100 μL of biotin binding anti-insulin antibody was added thereto and stirred. […] 100 μL of 1M sulphuric acid solution was respectively added to stop the reaction, measure absorbance (OD 450 nm) and calculate the amount of insulin in plasma.

The subject of a further experiment is mitochondrial DNA. Briefly: Measurement of the amount of mitochondrial DNA in a skeletal muscle (real-time PCR). The format is in vivo, mouse. The note with it: GABA training group vs control group, GABA group and training group. The procedure:
as §2
During the test period, the above classified mice freely ingested about 2.7 to about 5.0 g/day of normal food or GABA-comprising food per one individual. Regarding the training group and the GABA training group, running was forced for 60 minutes on a schedule of 3 times a week (interval of 1 day or 2 days). […]
20 to 50 mg of tissue sample was taken out to a 2 mL plastic tube to extract DNA in accordance with the genome DNA purification protocol described in NucleoSpin® DNARapidLyse (TAKARA BIO INC.). The amount of relative expression of the amount of mitochondria with respect to mouse nuclear DNA was quantified with the real-time PCR method using Thermal Cycler Dice® Real TimeSystem II (TAKARA BIO INC.) and set as mitochondrial DNA amount.

The test system of another experiment is skeletal muscle. Conditions: GABA in addition to whey protein vs whey protein alone; in training; J Clin Med Res. 2019; 11(6):428-434; cited from earlier work.
A further experiment relates to AMPK protein. Briefly: Relative expression of AMPK protein in a skeletal muscle (western blotting). The experiment is classed as in vivo, mouse. The note with it: gastrocnemius muscle. On the procedure: as §1, with “[…] The amount of protein was quantified in accordance with the method of the TaKaRa BCA Protein Assay Kit (TAKARA BIO INC.) using bovine serum albumin as” for “Since”, “standard protein. […]” for “mouse will run at the speed of about 6 to 24 m/minute without a load, the running speed of 25 m/minute is a little faster than normal, i.e., low to moderate intensity.”

A further experiment relates to myosin 2a protein. Briefly: Relative expression of myosin 2a in a skeletal muscle (soleus muscle), western blotting. The format is in vivo, mouse. On the procedure:
as §2
During the test period, the above classified mice freely ingested about 2.7 to about 5.0 g/day of normal food or GABA-comprising food per one individual. Regarding the training group and the GABA training group, running was forced for 60 minutes on a schedule of 3 times a week (interval of 1 day or 2 days). This training was continued until 3 days after termination of the below-mentioned third running test. […]
Two days after termination of the final training, a skeletal muscle (soleus muscle) tissue of mouse was grinded with a biomasher on ice. […] The protein concentration of the protein extraction liquid was measured with a protein assay BCA kit and dilution was carried out with a RIPA buffer so that the protein concentration of the protein extraction liquid would be 4 mg/ml. […]

The next experiment relates to PGC-1α protein. Briefly: Relative expression of PGC-1α protein in a skeletal muscle (western blotting). The experiment is classed as in vivo, mouse. Conditions: gastrocnemius muscle. On the procedure: as §1, with “[…] The amount of protein was quantified in accordance with the method of the TaKaRa BCA Protein Assay Kit (TAKARA BIO INC.) using bovine serum albumin as” for “Since”, “standard protein. […]” for “mouse will run at the speed of about 6 to 24 m/minute without a load, the running speed of 25 m/minute is a little faster than normal, i.e., low to moderate intensity.”

Each structure is given as a SMILES string.

Turning to `NCCCC(=O)O` [GABA, γ-aminobutyric acid], the “amount of increase of running time due to a training (running time to exhaustion)” value with male ICR mice (fourth week, P=0.14) is “tendency to be enlarged”; with male ICR mice (second week, P=0.04), “significantly enlarged”. Further, the “amount of glycogen in the gastrocnemius muscle” value in experiment [1] (GABA group vs control group, no training, P=0.09) was “tendency of increase”; in experiment [1] (GABA training group vs training group, P=0.04) it was “significantly increased”. Moreover, the “phosphorylated AKT/total AKT ratio in a skeletal muscle” value in the experiment with phosphorylated AKT/AKT (GABA group vs control group) is “tendency to decrease”; in the experiment on phosphorylated AKT/AKT (GABA training group vs training group, P=0.0001), “significantly decreased”. For the same compound, the “amount of insulin in plasma” value in the experiment with insulin in plasma (GABA group vs control group, no training) is “decreased”; in the experiment on insulin in plasma (GABA training group vs control group) it was “decreased”; with insulin in plasma (GABA training group vs training group, P=0.07), “decreased”. The “mitochondrial DNA amount in a skeletal muscle” value in the experiment on mitochondrial DNA was “tendency of increase”. In addition, the “amount of fat removed muscle” value in the experiment with skeletal muscle was “increases”. Further, the muscle hypertrophy result with skeletal muscle is “stimulates more muscle hypertrophy”. The “amount of expression of AMPK protein” value with AMPK protein (GABA training group vs control group, P=0.0008) is reported as “increased”; in the experiment with AMPK protein (GABA training group vs training group) it was “increased more than the training group”. In addition, the “amount of expression of myosin 2a protein in a skeletal muscle (soleus muscle)” value is on record as “tendency to increase” in the experiment with myosin 2a protein (GABA group vs control group and training group); “significantly increased” with myosin 2a protein (GABA training group vs the other 3 groups). In addition, the “amount of expression of PGC-1α protein in a skeletal muscle” value was “significantly increased” in the experiment with PGC-1α protein (GABA training group vs training group, P=0.01) and “tendency of increase” in the experiment on PGC-1α protein (vs control group (group not given, presumably GABA group)).

The record behind these values is patent publication US20210322352A1, “COMPOSITION FOR IMPROVING ENDURANCE AND METHOD OF IMPROVING ENDURANCE USING THE SAME” (PHARMA FOODS INTERNATIONAL CO., LTD., priority 2020, published 2021).
